pKd: −log10 of the molar value.
Experiments:
[1] = target: internalization-mutant sortilin (human) (UniProt Q99523); assay: immunostaining of cells or tissue; HEK293 cells transiently transfected with sortilin (or empty vector) in 96-well dishes, treated 45 min with 50 nM GSTpro or proNGF, washed, fixed, permeabilised (0.1% Triton X-100), stained for sortilin and for GST or the pro domain; automated array-scanner analysis of sortilin-positive and sortilin-negative cells
[2] = tested on: wt sortilin; assay: Competition of proNGF against GSTpro binding to wt sortilin-transfected HEK cells (stained for GST); assay type: cell-based, human; details: 5, 10, or 25 nM GSTpro concomitantly with 50 nM proNGF; Fig. 3v
Protocol: HEK 293 cells were grown in DMEM with 10% fetal bovine serum. They were transfected with plasmids either encoding wild type sortilin, or sortilin with a mutation that renders it endocytosis deficient, or an empty control vector according to manufacturer’s instructions using 20 µg lipofectamine (Thermo Fischer Scientific) with 8 µg DNA on […] per 6 cm, poly-lysine coated dish. The cells were initially plated into 24-well dishes after transfection. That intermediate step rendered more uniform cell numbers in the 96-well dishes that were used to run the actual assay. […]
A-T Immunohistochemistry on HEK 293 cells using Hoechst staining (nuclei); anti-sortilin staining; or staining directed against the pro domain of proNGF (proNGF/GSTpro); or composite image showing all staining concomitantly as indicated above the panels. a–d Cells transfected with an empty expression vector and treated with GSTpro. e–h Cells transfected with a sortilin expression construct, but not treated with GSTpro. i–l Cells transfected with sortilin and GSTpro treated. m–p, Cells transfected with sortilin and proNGF purified from recombinant E.coli. q–t Cells transfected with sortilin and proNGF purified from a eukaryotic expression system. […] Black columns: Total fluorescence intensity of “sortilin-negative” cells. Red columns: Total fluorescence intensity of sortilin positive cells. […]

[3] = tested on: sortilin; details: scintillation proximity assay; ref Andersen et al. [2014]; cited from earlier work
Text: The role of sortilin signaling in several pathologic processes makes it a target for drug development. […] In addition to this assay, other in vitro assays including the binding of ligands to membrane fractions derived from sortilin-expressing cells (Carvelli et al. [2017]), surface plasmon resonance, and l ...

[4] = target: proNGF (Homo sapiens) (UniProt P01138); details: cited from earlier work
proNGF (Homo sapiens), sequence (P01138 122-241): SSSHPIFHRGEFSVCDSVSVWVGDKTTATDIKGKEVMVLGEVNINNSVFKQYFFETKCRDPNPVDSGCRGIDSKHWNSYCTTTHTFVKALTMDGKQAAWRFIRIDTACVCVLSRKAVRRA

[5] = target: T1, sortilin (Homo sapiens, UniProt Q99523); assay: Cell-based assay of GSTpro (NGF prodomain) binding/uptake, wt sortilin-transfected HEK293 cells, sortilin/GST double stain, high content imaging, with detergent; details: Fig. 6a; with detergent; sortilin-positive cells; preincubation 1 h, GSTpro 45 min
T1 construct: They were transfected with plasmids either encoding wild type sortilin, or sortilin with a mutation that renders it endocytosis deficient; expressed in transfected cells; host or cells: HEK 293 cells, transient transfection (lipofectamine)
T1 sequence (Q99523 78-831): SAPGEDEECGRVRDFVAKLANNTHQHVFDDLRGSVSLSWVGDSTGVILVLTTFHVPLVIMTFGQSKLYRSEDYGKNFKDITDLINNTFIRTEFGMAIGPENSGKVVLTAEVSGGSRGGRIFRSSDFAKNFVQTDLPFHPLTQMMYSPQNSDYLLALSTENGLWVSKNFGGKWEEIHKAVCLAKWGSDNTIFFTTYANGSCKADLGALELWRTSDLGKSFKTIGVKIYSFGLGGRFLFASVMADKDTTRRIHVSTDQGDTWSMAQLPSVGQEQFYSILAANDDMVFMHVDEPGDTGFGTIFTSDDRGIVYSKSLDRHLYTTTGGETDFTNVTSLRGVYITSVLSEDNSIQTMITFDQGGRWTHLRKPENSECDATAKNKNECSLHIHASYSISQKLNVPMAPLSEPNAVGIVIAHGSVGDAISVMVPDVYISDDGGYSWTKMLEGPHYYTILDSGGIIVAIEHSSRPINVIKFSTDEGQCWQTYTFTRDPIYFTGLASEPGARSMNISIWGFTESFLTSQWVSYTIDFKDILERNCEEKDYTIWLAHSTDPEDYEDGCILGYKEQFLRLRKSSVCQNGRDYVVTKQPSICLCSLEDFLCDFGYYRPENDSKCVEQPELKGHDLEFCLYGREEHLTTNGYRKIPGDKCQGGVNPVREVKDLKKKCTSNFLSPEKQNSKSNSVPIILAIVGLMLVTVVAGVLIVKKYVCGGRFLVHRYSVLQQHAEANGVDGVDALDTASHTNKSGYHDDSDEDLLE
Protocol: HEK 293 cells were grown in DMEM with 10% fetal bovine serum. They were transfected with plasmids either encoding wild type sortilin, or sortilin with a mutation that renders it endocytosis deficient, or an empty control vector according to manufacturer’s instructions using 20 µg lipofectamine (Thermo Fischer Scientific) with 8 µg DNA on […] per 6 cm, poly-lysine coated dish. The cells were initially plated into 24-well dishes after transfection. That intermediate step rendered more uniform cell numbers in the 96-well dishes that were used to run the actual assay. 24 h later, cells were split into black opaque-walled, clear-bottom 96 well dishes at 42000 cells in 80 µl medium/well. […] 1 h after that treatment, the medium was replaced with 80 µl medium containing the same antibody, compounds or peptides included in the preincubation medium, plus recombinant GSTpro or proNGF (either purified in-house from recombinant HEK cells or derived from an E.coli expression system at either 0 nM (negative control), or 50 nM, or, in a few instances at 5 or 10 nM. The respective concentrations are indicated in the figures 45 min after adding GSTpro or proNGF, cells were washed twice with prewarmed PBS and fixed in 4% PFA for 20 min at approximately 20 °C.
The fixed cells were washed with PBS for 15 min, followed by two 15 min washes with PBS with 0.1% Triton X-100. […] Wells to be evaluated for blocking of the sortilin-GSTpro interaction by antibodies were only stained with an antibody against the pro domain of proNGF in 10% FBS at a dilution of 1:1500 (Millipore (N-term) clone EPI318Y, Rabbit Monoclonal Antibody Catalog Number: #04-1142). […]
The following day, wells were washed 3 × 15 min with PBS/0.1% Triton X-100. […] Cellular fluorescence was quantified using an array scanner and the “Neuronal Profiler” Bioapplication (Thermo Fisher Scientific) as described below.
Sortilin-GSTpro interaction was also assessed using HEK cell derived cell lines stably expressing sortilin. […]
Images from 96 well dishes were automatically recorded with a Cellomics ArrayScan VTI HCS Reader (Thermo Scientific) using a 10× microscope objective and the build-in standard autofocus method. Fifteen 1024 × 1024 images in 4 channels (Channel 1 and 2: Filter XF5–Hoechst, to detect nuclei and all cells; Channel 3: XF53-Texas Red to detect, e.g., sortilin-positive cells; Channel 4: Filter XF93 – FITC, to detect cells positive, e.g., for the proNGF pro domain) were recorded per 96 well.
The images were analyzed with the Cellomics assay algorithm NeuronalProfiling.V3.5.

## GSTpro (GST C-terminally linked to the pro domain from NGF) (from UniProt P01138 19-121) (domain or fragment)
[1]
  GSTpro signal compared to wt sortilin transfected cells: 60 % higher

## proNGF isolated from recombinant E. coli: Recombinant human proNGF expressed and purified from E.coli, purchased from Alamone labs
[2]
  competition against GSTpro binding to sortilin (in words): compete against GSTpro binding to wt sortilin

## euk. proNGF: proNGF isolated from a mammalian expression system
[2]
  competition against GSTpro binding to sortilin (in words): compete against GSTpro binding to wt sortilin

## Cc1cc(=O)oc2c(CN[C@@H](CC(C)C)C(=O)O)c(O)ccc12 [AF40431]
[3]
  blocking of sortilin-neurotensin interaction (in words): blocked sortilin-neurotensin interaction

## sortilin (from UniProt Q99523)
[4]
  pKd: 8.30

## PYIL [reference compound]
[5]
  reduction of GSTpro signal by neurotensin-derived and control peptides (in words): to a lesser extent also reduced
